Measurements published in the supplement of paper PMC10307832.

Legend:
Experiment in all cases: relative viability (nuclei count vs DMSO), 5 days (fraction); higher = more cells survive
[1] = compound: CN1C=C(C2=CC=CC=C21)/C=C\3/C4=C(C=CC=N4)NC3=O + NC(=O)Nc1cc(-c2cccc(F)c2)sc1C(=O)N[C@H]1CCCNC1 [AZD7762] (partner 0.2 µM)
Outline: (§1)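 Medians of duplicate plates are given as relative viability. That measure is the nuclei count in treated wells divided by the count in vehicle wells. Counts were taken on 4× images of lung cancer cell lines in 1536-well plates, 5 days after pin-tool dosing the day after seeding with one drug alone or a fixed anchor-drug dose plus five library-drug doses (not always all listed) in √10 steps.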

Trametinib + Pictilisib = compound: CC(=O)Nc1cccc(-n2c(=O)n(C3CC3)c(=O)c3c(Nc4ccc(I)cc4F)n(C)c(=O)c(C)c32)c1 [Trametinib] + CS(=O)(=O)N1CCN(Cc2cc3nc(-c4cccc5[nH]ncc45)nc(N4CCOCC4)c3s2)CC1 [Pictilisib] (partner 1 µM)
Outline: as §1

[2] = compound: CN1C=C(C2=CC=CC=C21)/C=C\3/C4=C(C=CC=N4)NC3=O + C[C@@H](Oc1cc(-c2cnn(C3CCNCC3)c2)cnc1N)c1c(Cl)ccc(F)c1Cl [Crizotinib] (partner 1 µM)
Outline: as §1

[3] = compound: CN1C=C(C2=CC=CC=C21)/C=C\3/C4=C(C=CC=N4)NC3=O + CC1(C)CCC(c2ccc(Cl)cc2)=C(CN2CCN(c3ccc(C(=O)NS(=O)(=O)c4ccc(N[C@H](CCN5CCOCC5)CSc5ccccc5)c(S(=O)(=O)C(F)(F)F)c4)cc3)CC2)C1 [Navitoclax] (partner 0.5 µM)
Outline: as §1

| Cell Line | relative viability ([1]; first compound 0.02 µM) | relative viability ([1]; first compound 0.06325 µM) | relative viability ([1]; first compound 0.2 µM) | relative viability ([1]; first compound 0.6325 µM) | relative viability ([1]; first compound 2 µM) | relative viability (Trametinib + Pictilisib; first compound 0.0025 µM) | relative viability (Trametinib + Pictilisib; first compound 0.007906 µM) | relative viability (Trametinib + Pictilisib; first compound 0.025 µM) | relative viability (Trametinib + Pictilisib; first compound 0.07906 µM) | relative viability (Trametinib + Pictilisib; first compound 0.25 µM) | relative viability ([2]; first compound 0.02 µM) | relative viability ([2]; first compound 0.06325 µM) | relative viability ([2]; first compound 0.2 µM) | relative viability ([2]; first compound 0.6325 µM) | relative viability ([2]; first compound 2 µM) | relative viability ([3]; first compound 0.02 µM) | relative viability ([3]; first compound 0.06325 µM) | relative viability ([3]; first compound 0.2 µM) | relative viability ([3]; first compound 0.6325 µM) | relative viability ([3]; first compound 2 µM) |
| --- | --- | --- | --- | --- | --- | --- | --- | --- | --- | --- | --- | --- | --- | --- | --- | --- | --- | --- | --- | --- |
| 201T | 0.578 | 0.662 | 0.761 | 0.668 | 0.658 | 0.653 | 0.625 | 0.542 | 0.71 | 0.615 | 1.01 | 1.04 | 1.05 | 1.12 | 1.01 | 1.22 | 1.21 | 1.24 | 1.27 | 1.23 |
| A549 |  |  |  |  |  | 0.375 | 0.237 | 0.179 | 0.121 | 0.072 | 0.631 | 0.755 | 0.724 | 0.828 | 0.75 | 1.36 | 1.27 | 1.15 | 1.24 | 1.15 |
| A-427 | 0.782 | 0.753 |  | 0.729 | 0.802 | 0.632 | 0.426 | 0.2 | 0.184 | 0.164 | 0.924 | 0.775 |  | 1 | 1.16 | 0.975 | 0.887 |  | 0.984 | 1.06 |
| ABC-1 | 0.889 |  |  | 0.708 | 0.874 | 0.552 | 0.56 | 0.363 | 0.458 | 0.28 | 1.03 | 0.988 | 1.03 | 1.04 | 1.43 |  |  |  |  |  |
| BEN | 0.771 | 0.742 | 0.485 | 0.622 | 0.728 | 0.487 | 0.472 |  | 0.419 | 0.426 | 0.896 | 0.807 | 0.761 | 0.779 | 0.956 | 0.0672 | 0.0704 | 0.0656 | 0.0636 | 0.0694 |
| CAL-12T | 0.586 | 0.612 | 0.623 | 0.643 | 0.612 | 0.348 | 0.29 | 0.271 | 0.279 | 0.318 | 0.552 | 0.654 | 0.549 | 0.81 | 0.743 | 1.22 | 1.11 | 1.22 | 1.19 | 1.14 |
| COR-L23 |  |  |  |  |  | 0.72 | 0.756 | 0.555 | 0.439 | 0.308 | 0.631 | 0.576 | 0.752 | 0.622 | 0.671 | 1.19 | 0.983 | 1.03 | 1 | 1.09 |
| COR-L 105 |  |  |  |  |  | 0.311 | 0.343 | 0.303 | 0.31 | 0.315 | 0.655 | 0.515 | 0.637 | 0.849 | 0.885 | 0.552 | 0.563 | 0.711 | 0.727 | 0.873 |
| Calu-6 |  |  |  |  |  | 0.739 | 0.45 | 0.193 | 0.136 | 0.121 | 0.675 | 0.783 | 0.815 | 0.772 | 0.816 | 0.804 | 0.772 | 0.746 | 0.908 | 0.859 |
| ChaGo-K-1 | 0.703 | 0.868 | 0.723 | 0.848 | 0.877 | 0.841 | 0.47 | 0.694 | 0.261 | 0.461 | 1.07 | 1.11 |  | 1.16 | 1.21 | 0.816 | 0.939 |  | 0.902 | 0.801 |
| EBC-1 |  |  |  |  |  | 0.244 | 0.204 | 0.134 | 0.137 | 0.168 | 0.233 | 0.182 | 0.192 | 0.183 | 0.207 | 0.37 | 0.426 | 0.384 | 0.48 | 0.498 |
| EKVX | 0.676 |  |  | 0.644 | 0.607 | 0.363 | 0.318 | 0.228 | 0.214 | 0.193 | 0.835 | 0.927 | 0.913 | 0.792 | 0.876 | 0.909 | 0.774 | 0.811 | 0.7 | 0.772 |
| EMC-BAC-2 | 0.963 | 0.963 | 0.91 | 1.03 | 1 | 0.517 | 0.429 | 0.379 | 0.423 | 0.331 | 0.644 | 0.714 | 0.668 | 0.757 | 0.832 | 0.924 | 1.12 | 1.25 | 1.13 | 1.35 |
| EPLC-272H | 0.321 | 0.244 |  | 0.132 | 0.174 | 0.268 | 0.221 | 0.175 | 0.174 | 0.0951 | 0.924 | 0.96 |  | 0.909 | 1.06 | 1.37 | 0.988 |  | 1.27 | 0.944 |
| H3255 | 1.02 | 0.86 | 0.848 | 0.954 | 0.844 | 0.436 | 0.344 | 0.334 | 0.237 | 0.206 | 0.91 | 0.935 | 0.874 | 0.888 | 0.889 | 0.547 | 0.484 | 0.422 | 0.439 | 0.425 |
| HARA | 0.197 | 0.368 |  | 0.358 | 0.345 | 0.384 | 0.342 | 0.131 | 0.207 | 0.213 | 0.975 | 0.958 | 0.933 | 1.02 | 1.09 | 1.09 | 1.15 | 1.04 | 1.17 | 1.17 |
| HCC-15 | 1.11 | 1.13 | 1.37 | 1.22 | 1.31 | 0.596 | 0.232 | 0.175 | 0.158 | 0.182 | 0.805 | 0.795 | 0.887 | 0.897 | 0.955 | 0.763 | 0.689 | 0.736 | 0.559 | 0.665 |
| HCC-44 | 0.937 | 1.02 | 0.94 | 1 | 0.956 | 0.581 | 0.428 | 0.276 | 0.291 | 0.272 | 0.793 | 0.73 | 0.722 | 0.712 | 0.715 | 0.943 | 1.03 | 0.89 | 0.726 | 0.772 |
